System: ADAMTS-13
Experiment: Cleavage of ULvWF platelet strings by ADAMTS-13 (perfusion assay)
Type: cell-based, human
Protocol: ADAMTS-13 reduces the size of large and ultralarge VWF multimers to smaller forms by specifically cleaving the Y842/M843 peptide bond in the VWF A2 domain.
In a first experiment, strings were generated by a 4 minute perfusion of washed platelets resuspended in buffer over histamine-stimulated endothelial cells. Subsequently, the non-adhered platelets were washed away by a 4 minute perfusion of buffer. After that, buffer was perfused for an other 4 minutes, followed by a 4 minute perfusion of pooled normal plasma containing ADAMTS-13. Detachment of the platelet strings was observed after perfusion of pooled normal plasma (FIG. 43). More than 95% of the strings were cleaved after the 4 minute perfusion.
In a next experiment, strings were generated by a 4 minute perfusion of washed platelets resuspended in buffer over histamine-stimulated endothelial cells and the non-adhered platelets were washed away by a 4 minute perfusion of buffer as above.

## ALX-0081: ALX-0081 (SEQ ID NO:98), Nanobody; humanised bivalent nanobody with the 3a linker
ALX-0081 10 μg/ml
  effect on the cleavage of ULvWF strings by ADAMTS-13: does not have an effect
ALX-0081 10 μg/ml (10-fold molar excess over vWF)
  strings cleaved after the 4 minute perfusion of pooled normal plasma: 95%

Reference: patent publication US7807162B2, “Single domain VHH antibodies against von Willebrand factor” (Ablynx N.V., priority 2005, dated 2010)
